# Legend:
# Assay in all cases: KINOMEscan competition binding
# Details in all cases: compound 10.0 µM
# [1] = target: PAK2 (human) (UniProt Q13177)
# [2] = target: MYO3B (human) (UniProt Q8WXR4)
# [3] = target: RPS6KA4 KD2 (human) (UniProt O75676)
# [4] = target: RPS6KA2 KD2 (human) (UniProt Q15349)
# [5] = target: PRKCQ (human) (UniProt Q04759)
# [6] = target: MAP2K4 (human) (UniProt P45985)
# [7] = target: CAMKK2 (human) (UniProt Q96RR4)
# [8] = target: PDGFRA (human) (UniProt P16234)
# [9] = target: TESK1 (human) (UniProt Q15569)
# [10] = target: IRAK3 (human) (UniProt Q9Y616)
# [11] = target: CHEK2 (human) (UniProt O96017)
# [12] = target: MAP4K4 (human) (UniProt O95819)
# [13] = target: STK32B (human) (UniProt Q9NY57)
# [14] = target: MAP4K3 (human) (UniProt Q8IVH8)
# [15] = target: CLK4 (human) (UniProt Q9HAZ1)
# [16] = target: ROCK2 (human) (UniProt O75116)
# [17] = target: MAPK6 (human) (UniProt Q16659)
# [18] = target: EPHB3 (human) (UniProt P54753)
# [19] = target: CSNK1G2 (human) (UniProt P78368)
# [20] = target: KDR (human) (UniProt P35968)
# [21] = target: PIP5K1A (human) (UniProt Q99755)
# [22] = target: PAK1 (human) (UniProt Q13153)
# [23] = target: RPS6KA5 KD2 (human) (UniProt O75582)
# [24] = target: BMPR1A (human) (UniProt P36894)
# [25] = target: RPS6KA3 KD1 (human) (UniProt P51812)
# [26] = target: CDKL2 (human) (UniProt Q92772)
# [27] = target: CDK5 (human) (UniProt Q00535)
# [28] = target: AURKA (human) (UniProt O14965)
# [29] = target: FGFR4 (human) (UniProt P22455)
# [30] = target: MAP3K12 (human) (UniProt Q12852)
# [31] = target: RIPK4 (human) (UniProt P57078)
# [32] = target: MYLK4 (human) (UniProt Q86YV6)
# [33] = target: CSK (human) (UniProt P41240)
# [34] = target: TYK2 JH2 pseudokinase (human) (UniProt P29597)
# [35] = target: MAP3K9 (human) (UniProt P80192)
# [36] = target: FGFR2 (human) (UniProt P21802)
# [37] = target: INSR (human) (UniProt P06213)
# [38] = target: STK10 (human) (UniProt O94804)
# [39] = target: NTRK3 (human) (UniProt Q16288)
# [40] = system: KIT (human), P10721 [V559D]
# MYLK4 (human), sequence (Q86YV6 whole entry, looked up): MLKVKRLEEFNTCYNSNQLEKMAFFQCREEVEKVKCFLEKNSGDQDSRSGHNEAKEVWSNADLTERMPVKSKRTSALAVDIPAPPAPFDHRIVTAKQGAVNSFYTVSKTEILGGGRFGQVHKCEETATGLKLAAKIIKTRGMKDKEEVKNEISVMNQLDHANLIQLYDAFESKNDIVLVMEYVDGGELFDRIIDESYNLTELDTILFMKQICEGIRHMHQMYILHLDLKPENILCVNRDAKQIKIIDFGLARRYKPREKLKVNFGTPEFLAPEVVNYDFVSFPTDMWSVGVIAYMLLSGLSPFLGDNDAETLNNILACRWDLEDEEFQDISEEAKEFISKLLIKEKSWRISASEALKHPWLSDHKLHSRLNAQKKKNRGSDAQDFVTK
# PAK1 (human), sequence (Q13153 whole entry, looked up): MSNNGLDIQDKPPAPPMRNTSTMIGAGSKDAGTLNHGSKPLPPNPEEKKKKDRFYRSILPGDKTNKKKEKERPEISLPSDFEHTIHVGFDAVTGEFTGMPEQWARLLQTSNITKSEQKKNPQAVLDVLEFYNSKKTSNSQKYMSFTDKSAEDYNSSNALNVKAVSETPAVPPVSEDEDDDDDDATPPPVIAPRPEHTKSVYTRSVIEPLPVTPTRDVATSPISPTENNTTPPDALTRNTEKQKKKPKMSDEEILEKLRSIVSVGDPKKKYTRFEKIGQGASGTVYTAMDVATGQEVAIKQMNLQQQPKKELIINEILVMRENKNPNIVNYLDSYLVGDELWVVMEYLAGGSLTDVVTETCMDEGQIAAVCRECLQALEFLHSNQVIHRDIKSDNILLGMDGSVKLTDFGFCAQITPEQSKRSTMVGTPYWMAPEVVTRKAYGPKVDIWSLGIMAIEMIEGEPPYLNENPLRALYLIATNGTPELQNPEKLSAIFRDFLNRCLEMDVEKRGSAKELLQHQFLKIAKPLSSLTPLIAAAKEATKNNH
# BMPR1A (human), sequence (P36894 whole entry, looked up): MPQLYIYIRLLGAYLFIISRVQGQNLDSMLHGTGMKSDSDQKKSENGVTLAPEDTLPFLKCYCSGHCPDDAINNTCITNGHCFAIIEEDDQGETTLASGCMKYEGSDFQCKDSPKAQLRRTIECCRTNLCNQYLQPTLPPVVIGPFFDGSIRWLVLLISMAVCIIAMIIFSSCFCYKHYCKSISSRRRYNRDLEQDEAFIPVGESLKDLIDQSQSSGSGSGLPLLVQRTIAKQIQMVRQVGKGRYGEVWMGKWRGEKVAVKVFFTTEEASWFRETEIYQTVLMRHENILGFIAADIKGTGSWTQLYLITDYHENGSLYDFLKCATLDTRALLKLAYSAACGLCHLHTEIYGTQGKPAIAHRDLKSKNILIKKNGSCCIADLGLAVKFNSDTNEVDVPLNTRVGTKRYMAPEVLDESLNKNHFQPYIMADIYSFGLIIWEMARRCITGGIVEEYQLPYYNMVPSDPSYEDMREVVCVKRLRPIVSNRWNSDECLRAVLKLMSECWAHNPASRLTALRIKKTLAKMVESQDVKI
# EPHB3 (human), sequence (P54753 whole entry, looked up): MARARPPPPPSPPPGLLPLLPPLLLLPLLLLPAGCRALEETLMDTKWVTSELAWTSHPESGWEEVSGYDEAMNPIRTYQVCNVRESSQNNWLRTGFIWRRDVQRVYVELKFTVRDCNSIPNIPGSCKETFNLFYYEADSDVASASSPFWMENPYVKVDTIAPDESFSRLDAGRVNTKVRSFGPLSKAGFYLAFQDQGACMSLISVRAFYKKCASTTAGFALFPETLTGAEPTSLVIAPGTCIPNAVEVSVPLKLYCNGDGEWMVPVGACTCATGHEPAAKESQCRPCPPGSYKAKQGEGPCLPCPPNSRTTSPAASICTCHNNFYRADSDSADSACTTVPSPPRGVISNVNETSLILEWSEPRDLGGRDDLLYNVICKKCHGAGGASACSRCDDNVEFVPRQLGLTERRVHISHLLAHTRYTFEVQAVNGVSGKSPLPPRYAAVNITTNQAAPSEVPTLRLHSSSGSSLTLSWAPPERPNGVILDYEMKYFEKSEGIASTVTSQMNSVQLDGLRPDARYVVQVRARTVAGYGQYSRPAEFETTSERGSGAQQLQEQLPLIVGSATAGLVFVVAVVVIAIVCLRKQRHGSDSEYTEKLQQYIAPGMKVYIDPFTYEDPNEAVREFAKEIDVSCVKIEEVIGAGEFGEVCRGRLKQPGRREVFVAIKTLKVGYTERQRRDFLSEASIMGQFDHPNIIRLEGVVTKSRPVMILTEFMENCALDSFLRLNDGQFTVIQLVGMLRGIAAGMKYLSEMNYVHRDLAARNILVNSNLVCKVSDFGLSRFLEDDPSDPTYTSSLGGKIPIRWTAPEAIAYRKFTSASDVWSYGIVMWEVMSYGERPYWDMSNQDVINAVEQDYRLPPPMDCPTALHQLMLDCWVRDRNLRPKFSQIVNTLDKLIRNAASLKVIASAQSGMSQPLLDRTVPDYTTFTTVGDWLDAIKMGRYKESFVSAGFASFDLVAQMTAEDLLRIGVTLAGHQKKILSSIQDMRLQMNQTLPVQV
# MAP4K4 (human), sequence (O95819 whole entry, looked up): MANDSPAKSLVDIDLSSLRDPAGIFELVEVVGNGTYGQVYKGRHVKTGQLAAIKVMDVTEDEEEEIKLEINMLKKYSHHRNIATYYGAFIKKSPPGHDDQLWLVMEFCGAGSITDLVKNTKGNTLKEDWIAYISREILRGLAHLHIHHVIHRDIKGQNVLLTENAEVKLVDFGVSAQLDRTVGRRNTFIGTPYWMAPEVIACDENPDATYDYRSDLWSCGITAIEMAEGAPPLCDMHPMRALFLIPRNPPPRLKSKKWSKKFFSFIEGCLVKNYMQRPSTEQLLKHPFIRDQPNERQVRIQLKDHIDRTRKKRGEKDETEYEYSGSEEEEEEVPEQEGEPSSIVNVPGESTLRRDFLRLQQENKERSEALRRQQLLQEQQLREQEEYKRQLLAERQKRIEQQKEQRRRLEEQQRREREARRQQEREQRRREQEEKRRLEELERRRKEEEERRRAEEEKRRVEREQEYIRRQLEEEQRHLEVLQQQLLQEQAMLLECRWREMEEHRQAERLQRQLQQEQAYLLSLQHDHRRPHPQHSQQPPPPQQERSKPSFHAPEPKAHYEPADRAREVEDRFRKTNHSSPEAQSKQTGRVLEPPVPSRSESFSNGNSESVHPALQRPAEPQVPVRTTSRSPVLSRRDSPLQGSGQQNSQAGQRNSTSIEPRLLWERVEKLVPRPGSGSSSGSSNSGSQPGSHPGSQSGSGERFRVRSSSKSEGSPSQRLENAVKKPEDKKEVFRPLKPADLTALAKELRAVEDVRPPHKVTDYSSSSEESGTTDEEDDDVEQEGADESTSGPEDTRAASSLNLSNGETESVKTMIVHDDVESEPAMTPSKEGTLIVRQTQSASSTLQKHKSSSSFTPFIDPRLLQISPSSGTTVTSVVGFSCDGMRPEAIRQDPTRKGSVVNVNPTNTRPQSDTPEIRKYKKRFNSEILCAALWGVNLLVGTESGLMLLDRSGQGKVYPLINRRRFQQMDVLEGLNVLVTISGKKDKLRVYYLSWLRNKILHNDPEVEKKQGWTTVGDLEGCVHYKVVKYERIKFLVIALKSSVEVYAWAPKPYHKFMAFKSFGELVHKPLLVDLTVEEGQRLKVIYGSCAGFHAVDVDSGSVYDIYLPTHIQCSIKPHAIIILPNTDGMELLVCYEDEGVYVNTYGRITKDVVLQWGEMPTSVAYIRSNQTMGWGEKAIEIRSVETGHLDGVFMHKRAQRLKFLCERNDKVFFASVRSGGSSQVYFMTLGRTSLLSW
# MAP4K3 (human), sequence (Q8IVH8 whole entry, looked up): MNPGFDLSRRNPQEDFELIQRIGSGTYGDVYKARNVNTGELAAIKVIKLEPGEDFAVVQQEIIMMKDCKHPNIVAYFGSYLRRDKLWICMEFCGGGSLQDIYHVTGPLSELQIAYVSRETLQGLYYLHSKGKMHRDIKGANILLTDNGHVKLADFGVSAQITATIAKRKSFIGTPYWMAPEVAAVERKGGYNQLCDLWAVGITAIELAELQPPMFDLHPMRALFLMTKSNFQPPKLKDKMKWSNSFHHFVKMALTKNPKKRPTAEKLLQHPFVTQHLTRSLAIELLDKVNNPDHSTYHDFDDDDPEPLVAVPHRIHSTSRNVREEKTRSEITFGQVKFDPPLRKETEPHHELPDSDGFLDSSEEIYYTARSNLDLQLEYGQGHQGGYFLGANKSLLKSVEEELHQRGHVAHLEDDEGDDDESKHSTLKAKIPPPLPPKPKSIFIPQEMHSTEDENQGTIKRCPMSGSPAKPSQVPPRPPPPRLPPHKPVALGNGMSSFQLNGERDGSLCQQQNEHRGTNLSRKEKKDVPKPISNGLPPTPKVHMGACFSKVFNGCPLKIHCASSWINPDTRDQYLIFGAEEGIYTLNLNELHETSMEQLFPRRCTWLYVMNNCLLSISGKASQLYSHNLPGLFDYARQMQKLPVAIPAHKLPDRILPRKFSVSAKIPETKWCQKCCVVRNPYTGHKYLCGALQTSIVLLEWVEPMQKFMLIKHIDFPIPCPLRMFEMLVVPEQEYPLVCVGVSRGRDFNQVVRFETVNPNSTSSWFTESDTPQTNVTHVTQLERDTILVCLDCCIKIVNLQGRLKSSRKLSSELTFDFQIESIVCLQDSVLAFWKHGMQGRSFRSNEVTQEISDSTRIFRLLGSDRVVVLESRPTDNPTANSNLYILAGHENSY
# STK32B (human), sequence (Q9NY57 whole entry, looked up): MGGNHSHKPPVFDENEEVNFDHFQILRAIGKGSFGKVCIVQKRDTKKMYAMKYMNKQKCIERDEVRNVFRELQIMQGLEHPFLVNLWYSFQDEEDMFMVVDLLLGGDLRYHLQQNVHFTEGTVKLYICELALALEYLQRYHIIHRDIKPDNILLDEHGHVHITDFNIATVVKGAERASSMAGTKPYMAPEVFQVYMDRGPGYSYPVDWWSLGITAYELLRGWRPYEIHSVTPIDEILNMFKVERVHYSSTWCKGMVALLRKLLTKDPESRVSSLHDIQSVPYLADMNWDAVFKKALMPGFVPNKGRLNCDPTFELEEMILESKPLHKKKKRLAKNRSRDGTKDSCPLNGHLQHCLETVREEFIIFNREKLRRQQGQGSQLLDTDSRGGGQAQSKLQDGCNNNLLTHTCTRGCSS
Structure (SMILES),"kinase still bound, per cent of control [1]","kinase still bound, per cent of control [2]","kinase still bound, per cent of control [3]","kinase still bound, per cent of control [4]","kinase still bound, per cent of control [5]","kinase still bound, per cent of control [6]","kinase still bound, per cent of control [7]","kinase still bound, per cent of control [8]","kinase still bound, per cent of control [9]","kinase still bound, per cent of control [10]","kinase still bound, per cent of control [11]","kinase still bound, per cent of control [12]","kinase still bound, per cent of control [13]","kinase still bound, per cent of control [14]","kinase still bound, per cent of control [15]","kinase still bound, per cent of control [16]","kinase still bound, per cent of control [17]","kinase still bound, per cent of control [18]","kinase still bound, per cent of control [19]","kinase still bound, per cent of control [20]",further results
C=CC(=O)Nc1cccc(Nc2nc(N[C@H]3CC[C@H](N(C)C)CC3)nc3c2ncn3C(C)C)c1,61%,100%,52%,81%,3.6%,76%,25%,59%,93%,38%,60%,53%,100%,25%,5.1%,10%,100%,83%,7.9%,96%,"kinase still bound, per cent of control [21]: 36%; kinase still bound, per cent of control [22]: 78%; kinase still bound, per cent of control [23]: 95%; kinase still bound, per cent of control [24]: 100%; kinase still bound, per cent of control [25]: 3.6%; kinase still bound, per cent of control [26]: 100%; kinase still bound, per cent of control [27]: 80%; kinase still bound, per cent of control [28]: 100%; kinase still bound, per cent of control [29]: 98%; kinase still bound, per cent of control [30]: 71%; kinase still bound, per cent of control [31]: 72%; kinase still bound, per cent of control [32]: 88%; kinase still bound, per cent of control [33]: 90%; kinase still bound, per cent of control [34]: 100%; kinase still bound, per cent of control [35]: 17%; kinase still bound, per cent of control [36]: 62%; kinase still bound, per cent of control [37]: 69%; kinase still bound, per cent of control [38]: 72%; kinase still bound, per cent of control [39]: 28%; kinase still bound, per cent of control [40]: 42%"
Nc1ccc(-c2ccc3ncc4ccc(=O)n(-c5cccc(C(F)(F)F)c5)c4c3c2)cn1,100%,87%,100%,86%,100%,44%,99%,62%,94%,42%,100%,71%,100%,63%,34%,81%,62%,100%,100%,100%,"kinase still bound, per cent of control [21]: 78%; kinase still bound, per cent of control [22]: 95%; kinase still bound, per cent of control [23]: 100%; kinase still bound, per cent of control [24]: 100%; kinase still bound, per cent of control [25]: 80%; kinase still bound, per cent of control [26]: 91%; kinase still bound, per cent of control [27]: 92%; kinase still bound, per cent of control [28]: 100%; kinase still bound, per cent of control [29]: 100%; kinase still bound, per cent of control [30]: 100%; kinase still bound, per cent of control [31]: 100%; kinase still bound, per cent of control [32]: 97%; kinase still bound, per cent of control [33]: 100%; kinase still bound, per cent of control [34]: 6.3%; kinase still bound, per cent of control [35]: 100%; kinase still bound, per cent of control [36]: 90%; kinase still bound, per cent of control [37]: 59%; kinase still bound, per cent of control [38]: 100%; kinase still bound, per cent of control [39]: 100%; kinase still bound, per cent of control [40]: 55%"

# From the kinase profiling compilation of Christmann-Franck et al. (2016)
